Results on five compounds are retold here after patent US20160250253A1, “STRONTIUM-CONTAINING COMPLEXES FOR TREATING GASTROESOPHAGEAL REFLUX AND BARRETT'S ESOPHAGUS” (priority 2013, published 2016).

Data set [1] has as its system TCN activation by highly acidic chemical peels. The data set is described as follows: Burning pain from 70% glycolic acid, pH 0.6, applied to the skin. The note with it: strontium mixed with 70% glycolic acid. The format is in vivo, human. On the procedure: Nociceptors also have a CaSR that inhibits nociceptor activation when the extracellular concentration of calcium is raised above normal, or if a similar concentration of strontium is administered. […] When strontium is mixed with the acid, burning pain and stinging is suppressed by 80% or more so that any remaining sensory irritation is not bothersome.

Data set [2] deals with burning pain due to 1% lactic acid. Put plainly: Burning pain from 1% lactic acid instilled on the conjunctiva of the eye. The conditions noted are these: 1% lactic acid on the conjunctiva, pilot studies in humans. The format is in vivo.
For data set [3], the system named is Type C nociceptors. The data set is described as follows: Substance P release by Type C nociceptors, unpublished animal studies. The format is in vivo. The text has this: As mentioned above, acid from the stomach activates many pathways that trigger pain and inflammation such as the release of substance P, neurokinin A, and CGRP. […] While the precise molecular mechanism by which strontium inhibits substance P release is unknown, it is believed that the release of substance P, neurokinin A and CGRP occur together and by the same or similar trigger mechanism.

Data set [4] concerns TCN activation by highly acidic chemical peels. The note with it: topically applied, 70% glycolic acid, pH 0.6 on the skin, previous studies; cited from earlier work.
Data set [5] deals with histamine-induced itching. The note with it: topical; cited from earlier work.
Data set [6] concerns synaptotagmin-1. The note with it: strontium substitutes for calcium; cited from earlier work.
The subject of data set [7] is CICR pathway. The conditions noted are these: cited from earlier work.
For data set [8] the following is noted: oral, 680 mg of elemental strontium per day; cited from earlier work.
The subject of data set [9] is Helicobacter pylori. The conditions noted are these: cited from earlier work.
The subject of data set [10] is ulcer. The note with it: cited from earlier work.
The test system of data set [11] is pain of sore throat. Put plainly: Sore throat pain after gargling. The format is in vivo. The note with it: within several minutes after gargling, clinical observations. The text has this: Since acidic material from the stomach is what causes the burning pain and inflammation in GER, it is hypothesized that strontium would be effective in treating GER.
The subject of data set [12] is acid-induced pain. Put plainly: Double blind study of glycolic acid induced pain on the forearm. The format is in vivo, human. The conditions noted are these: 25% glycolic acid with or without 250 millimolar gallic acid, topical on forearm, pain rated 0-4 every minute for 10 minutes. On the procedure:
Briefly, in a double blind study, 25% glycolic acid solutions with or without 250 millimolar of gallic acid were applied to an 2×8 inch area of the forearm of the study participants. The pain level was assessed at time of application and every minute thereafter for 10 minutes. Study participants rated the pain levels on a 0-4 scale where 0 was no pain; 1 was slight pain; 2 was mild pain; 3 was moderate pain; and 4 was unbearable pain.

For data set [13], the target named is KCa 3.1 (Homo sapiens, UniProt O15554). The note with it: cited from earlier work.
Data set [14] relates to cancer cell lines. The note with it: series of cancer cell lines; cited from earlier work.
Data set [15] deals with esophageal cancer cells (TE-2). The note with it: cited from earlier work.

For the compound `[Sr+2]` [strontium], in data set [1], the “suppression of burning pain and stinging” value is recorded as ≥ 80%. Moreover, the burning pain entry in data set [2] is reported as “inhibit burning pain”. Moreover, in [3], the “substance P release” value is listed as “inhibit substance P release”. The intense burning pain result in data set [4] was “virtually abolish”. Further, the injected histamine-induced itching result in data set [5] is “significantly inhibited”. In addition, the “reduction of amplitude of synchronous neurotransmitter release” value in [6] is > 90%. Moreover, the “ability to induce CICR relative to calcium” value in [7] is given as “over a hundred-fold less active than calcium”. Also, the “concentration in the ER relative to calcium” value in data set [7] (greater than calcium) is recorded as “more than 150%”. For the same compound, the “fraction absorbed by the GI tract into the blood” value in data set [8] was “approximately 25%”.
Take `O=C(O)C=Cc1ccccc1` [cinnamic acid]: in [9], the H. pylori growth entry is “inhibition of H. pylori growth”. The ulcer-preventing properties entry in data set [10] is “ulcer-preventing properties”.
As for `[Cl-].[Cl-].[Sr+2]` [strontium chloride solution, strontium chloride], the “pain of sore throat” value in [11] is “greatly relieved, if not eliminated”.
With `O=C(O)c1cc(O)c(O)c(O)c1` [gallic acid, 3,4,5-trihydroxybenzoic acid], in data set [12], the acid induced pain entry is “effective in reducing or preventing the acid induced pain”. In addition, the “block of KCa 3.1” value in data set [13] is recorded as “does not block”. Also, the cell proliferation entry in [14] is reported as “significant inhibition of cell proliferation”. Besides, the apoptosis entry in data set [15] is “induced apoptosis”. The H. pylori growth result in [9] is “inhibition of H. pylori growth”. Moreover, in data set [10], the ulcer-preventing properties entry is listed as “ulcer-preventing properties”.
Regarding `N#Cc1c(N(CC(=O)[O-])CC(=O)[O-])sc(C(=O)[O-])c1CC(=O)[O-].[Sr+2].[Sr+2]` [strontium ranelate], in data set [8], the “fraction absorbed by the GI tract into the blood” value is “approximately 25%”.
